Measurements taken from the supplement of paper PMC4862054.
Values joined by “and” are separate entries in the source; they are usually repeats but may differ in a detail not shown here. Identical values can stand only once.

Assays:
Assay in all cases: normalised viability (% of control), CellTiter-Blue; higher = more viable cells (about 100 = DMSO control)
Details in all cases: incubation time: 72 h
HCC1937 = tested on: HCC1937
How it was run: (§1)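 Plates were quality-checked by Z'-factor and normalised to vehicle (100) and a positive kill control (0). The underlying assay incubated breast cancer cell lines for 72 h on 384-well plates with compound, then added 2.5 µl CellTiter-Blue for 2 h at 37 °C and read at 560/590 nm. The value is normalised viability at a single listed concentration of the series.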

CAL-85-1 = tested on: CAL-85-1
How it was run: as §1

HCC1599 = tested on: HCC1599
How it was run: as §1

MDA-MB-436 = tested on: MDA-MB-436
How it was run: as §1

DU-4475 = tested on: DU-4475
How it was run: as §1

MDA-MB-468 = tested on: MDA-MB-468
How it was run: as §1

SK-BR-3 = tested on: SK-BR-3
How it was run: as §1

HDQ-P1 = tested on: HDQ-P1
How it was run: as §1

HCC1143 = tested on: HCC1143
How it was run: as §1

MDA-MB-453 = tested on: MDA-MB-453
How it was run: as §1

MFM-223 = tested on: MFM-223
How it was run: as §1

CAL-148 = tested on: CAL-148
How it was run: as §1

Hs578T = tested on: Hs578T
How it was run: as §1

CAL-51 = tested on: CAL-51
How it was run: as §1

BT-549 = tested on: BT-549
How it was run: as §1

Cc1ccc(NC(=O)c2ccc(CN3CCN(C)CC3)cc2)cc1Nc1nc(-c2cccnc2)cs1 [Masitinib]
normalised viability [%]
Details | 3 nM | 10 nM | 30 nM | 100 nM | 1000 nM | 10000 nM
BT-549 | – | 94.2 | – | – | 100 | 51.2
CAL-51 | 106 | – | 100 | 97.5 | – | –
CAL-85-1 | 94.8 | – | 75.5 | 90.8 | – | –
CAL-148 | 80.9 | – | 82.8 | 90.6 | – | –
DU-4475 | 109 | – | 91.4 | 95.5 | – | –
HCC1143 | – | 77.4 | – | – | 88.7 | 85.5
HCC1599 | – | 86.2 | – | – | 97.6 | 95.8
HCC1937 | – | 97.3 | – | – | 99.5 | 84.8
HDQ-P1 | 94 | – | 92.9 | 99.5 | – | –
Hs578T | – | 113 | – | – | 113 | 81.4
MDA-MB-436 | – | 97.5 | – | – | 111 | 72.4
MDA-MB-453 | 112 | – | 123 | 105 | – | –
MDA-MB-468 | – | 93.3 | – | – | 105 | 53.4
MFM-223 | – | 89.2 | – | – | 93.7 | 92.5
SK-BR-3 | – | 99.6 | – | – | 102 | 25.2

O=P1(N(CCCl)CCCl)NCCCO1 (centres undefined) [Cyclophosphamide]
normalised viability [%]
Details | 12 nM | 40 nM | 120 nM | 400 nM | 4000 nM | 40000 nM
BT-549 | – | 94.3 | – | – | 94.9 | 95.2
CAL-51 | 111 | – | 99 | 111 | – | –
CAL-85-1 | 98.8 | – | 89.9 | 97.5 | – | –
CAL-148 | 100 | – | 102 | 109 | – | –
DU-4475 | 110 | – | 90.9 | 113 | – | –
HCC1143 | – | 84.1 | – | – | 93.6 | 87.3
HCC1599 | – | 89.4 | – | – | 78 | 91.5
HCC1937 | – | 98.3 | – | – | 111 | 98.5
HDQ-P1 | 119 | – | 109 | 104 | – | –
Hs578T | – | 107 | – | – | 108 | 112
MDA-MB-436 | – | 108 | – | – | 83.7 | 83.9
MDA-MB-453 | 105 | – | 105 | 111 | – | –
MDA-MB-468 | – | 102 | – | – | 100 | 106
MFM-223 | – | 92.1 | – | – | 98.9 | 98.5
SK-BR-3 | – | 105 | – | – | 102 | 110

COc1cc2ncnc(Nc3ccc(F)c(Cl)c3)c2cc1OCCCN1CCOCC1 [Gefitinib]
Details | normalised viability
BT-549, 10 nM | 92.3% and 89.6%
BT-549, 1000 nM | 89% and 101%
BT-549, 10000 nM | 65.2% and 59.6%
CAL-51, 3 nM | 107% and 110%
CAL-51, 30 nM | 104% and 106%
CAL-51, 100 nM | 108% and 102%
CAL-85-1, 3 nM | 90.7% and 85.5%
CAL-85-1, 30 nM | 84.7% and 89.6%
CAL-85-1, 100 nM | 88.5% and 85.5%
CAL-148, 3 nM | 83% and 87.9%
CAL-148, 30 nM | 96.2% and 85.9%
CAL-148, 100 nM | 94.4% and 90.2%
DU-4475, 3 nM | 89.8% and 92.1%
DU-4475, 30 nM | 85.6% and 75.6%
DU-4475, 100 nM | 99.3% and 83.1%
HCC1143, 10 nM | 65.4% and 86.2%
HCC1143, 1000 nM | 64.3% and 84.5%
HCC1143, 10000 nM | 68.2% and 68.7%
HCC1599, 10 nM | 90.8% and 106%
HCC1599, 1000 nM | 75.2% and 81.4%
HCC1599, 10000 nM | 64.6% and 70.1%
HCC1937, 1000 nM | 101% and 100%
HCC1937, 10000 nM | 61.1% and 79.5%
HDQ-P1, 3 nM | 88.5% and 105%
HDQ-P1, 30 nM | 87% and 110%
HDQ-P1, 100 nM | 91% and 109%
Hs578T, 10 nM | 100% and 105%
Hs578T, 1000 nM | 91.4% and 112%
Hs578T, 10000 nM | 77.4% and 74.4%
MDA-MB-436, 10 nM | 90.6% and 82.3%
MDA-MB-436, 1000 nM | 88.3% and 81.4%
MDA-MB-436, 10000 nM | 69.9% and 62%
MDA-MB-453, 3 nM | 113% and 111%
MDA-MB-453, 30 nM | 85.4% and 90.8%
MDA-MB-453, 100 nM | 88.2% and 89.2%
MDA-MB-468, 10 nM | 97.6% and 107%
MDA-MB-468, 1000 nM | 57.8% and 65.9%
MDA-MB-468, 10000 nM | 38.7% and 38.4%
MFM-223, 10 nM | 89.2% and 87.1%
MFM-223, 1000 nM | 92.2% and 89%
MFM-223, 10000 nM | 71.9% and 64.2%
SK-BR-3, 10 nM | 88.1% and 97.7%
SK-BR-3, 1000 nM | 67.2%
SK-BR-3, 10000 nM | 20.8% and 20.5%

COC(=O)c1ccc2c(c1)NC(=O)/C2=C(\Nc1ccc(N(C)C(=O)CN2CCN(C)CC2)cc1)c1ccccc1 [BIBF 1120]
normalised viability [%]
Details | 3 nM | 10 nM | 30 nM | 100 nM | 1000 nM | 10000 nM
BT-549 | – | 105 | – | – | 111 | 16.4
CAL-51 | 104 | – | 96.3 | 100 | – | –
CAL-85-1 | 97.1 | – | 98.3 | 99.6 | – | –
CAL-148 | 93.5 | – | 99 | 97.7 | – | –
DU-4475 | 94.6 | – | 100 | 91 | – | –
HCC1143 | – | 91 | – | – | 103 | 56.7
HCC1599 | – | 90.9 | – | – | 95.9 | 65.1
HCC1937 | – | 144 | – | – | 130 | 84
HDQ-P1 | 124 | – | 117 | 124 | – | –
Hs578T | – | 102 | – | – | 111 | 34
MDA-MB-436 | – | 120 | – | – | 122 | 43.8
MDA-MB-453 | 112 | – | 101 | 104 | – | –
MDA-MB-468 | – | 108 | – | – | 112 | 17.6
MFM-223 | – | 99.5 | – | – | 57 | 36.6
SK-BR-3 | – | 101 | – | – | 91.8 | 42.8
